Laboratory results reported in patent US9315496B2, “Benzopyrone derivative and use thereof” (HUAZHONG UNIVERSITY OF SCIENCE & TECHNOLOGY, priority 2011, dated 2016).
Like-named read-outs stand apart in the source and are kept apart here.

What was measured:
[1] = molecular target: dopamine D2 receptor (Rattus norvegicus, UniProt P61169); experiment: D2 receptor binding assay (3H-Spiperone, rat brain striatum membrane); conditions: for inhibition at 10 µM: read-out: D2 inhibition %
Description: Rats were sacrificed by cervical dislocation on ice. Brain striatum was rapidly taken, and 2 brain striatums were combined into a centrifuge tube, to which 3 ml of buffer (0.05 M Tris-HCl buffer, containing NaCl 120 mM, KCl 5 mM, MgCl2 1 mM, CaCl2 1 mM) was added, homogenization was conducted for 3-4 s at level 4 for four times, and then 5 ml of buffer was then added. The weight of the homogenized tubes were adjusted using a balance, and centrifugation was conducted at 12000 r, 4° C. for 20 min. The supernatant was discarded, and 3 ml of buffer was added (0.05 M Tris-HCl buffer, containing NaCl 120 mM, KCl 5 mM, MgCl2 1 mM, CaCl2 1 mM). Vortex mixer was used for blending, and then 5 ml of buffer was added (0.05 M Tris-HCl buffer, containing NaCl 120 mM, KCl 5 mM, MgCl2 1 mM, CaCl2 1 mM). Centrifugation was conducted (repeated 3 times). After the centrifugations, the supernatant was discarded, and the pellets were stored at −80° C. for future use.
Beckman LS-6500 Multi-function Liquid Scintillation Counter was used.
(1) The prepared membrane was first applied with appropriate amount of homogenized liquid, and homogenizer was used for evenly dispersing. 15 tubes were mixed into a 100 ml container, and appropriate amount of homogenized liquid was added to give 50 ml of membrane suspension, which was reserved for future use.
(2) 100 μL of membrane preparation and 100 μL of buffer were added into each reaction tube.
(3) 100 μL of homogenized liquid was added into the total binding tube (TB), 100 μL of Butaclamol (final concentration 10^−5 M) was added into the non-specific binding tube (NB), and 100 μL of the test compound (final concentration 10^−5 M) was added into the specific binding tube (SB) for each compound.
(5) Each of the reaction tubes was incubated at 37° C. for 20 min. After the reaction was completed, the bound ligands were rapidly filtered under reduced pressure, and the ice-chilled assay buffer was used for adequate washing. The filter was taken out and put into a 3 ml scintillation vial, and 2 ml of toluene scintillation solution was added and blended.
(6) The scintillation vials were put into Liquid Scintillation Counter for counting. Inhibitory rate(1%)=(Total binding tube cpm−compound cpm)/(Total binding tube cpm−non-specific binding tube cpm)×100%
Each assay for the compounds was conducted in duplicate.

[2] = molecular target: T1, 5-HT1A receptor (Rattus norvegicus, UniProt P19327); experiment: 5HT1A receptor binding assay (3H-8-OH-DPAT, rat brain striatum membrane); conditions: for inhibition at 10 µM: test compound final concentration 10^−5 M
T1 sequence (P19327 1-422): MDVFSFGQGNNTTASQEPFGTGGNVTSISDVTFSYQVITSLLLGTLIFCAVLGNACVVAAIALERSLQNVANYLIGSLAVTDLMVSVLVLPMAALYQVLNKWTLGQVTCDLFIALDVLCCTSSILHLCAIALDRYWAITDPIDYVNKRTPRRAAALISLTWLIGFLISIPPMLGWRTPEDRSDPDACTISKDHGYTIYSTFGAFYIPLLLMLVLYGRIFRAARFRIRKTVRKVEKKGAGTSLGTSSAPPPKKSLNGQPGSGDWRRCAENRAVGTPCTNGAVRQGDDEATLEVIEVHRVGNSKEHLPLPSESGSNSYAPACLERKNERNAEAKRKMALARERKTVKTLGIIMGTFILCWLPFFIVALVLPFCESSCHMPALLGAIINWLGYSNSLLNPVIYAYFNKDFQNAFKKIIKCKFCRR
Description: Incubation at 37° C. was conducted for 10 min, the weight of the tubes were adjusted using a balance after incubation. […] Centrifugation was conducted and repeated 3 times.

[3] = Catalepsy assay; type: in vivo; conditions: both sexes, Kunming (KM), mouse, in vivo; mice, po
Description: (§1) Healthy mice of Kunming breed (with half male and half female, (22±2)g) were provided by Qinglongshan Animal Cultivation Center, Nanjing.
(§2) Instruments: self-made bar-grabbing apparatus: stainless steel bar in mice box, which was 0.3 cm in diameter and […].
(§3) Corresponding solvent double-distilled water was administered intragastrically to the negative control group and the model group, corresponding positive drugs were administered intragastrically to the positive drug groups (a small amount of acetic acid was first added and then double-distilled water was added when dissolving), and corresponding dosages of compounds were administered intragastrically to the compound groups for each dosage, with the volume for intragastric administration as 0.1 ml/10 g. At 30 min, 60 min, 90 min after the intragastric administration, the two forepaws of the mice were gently placed on the bars (which were 20 cm in length, 0.3 cm in diameter, and 5.5 cm above the bench), and the hindpaws of the animals were placed on the bottom of the box. The durations for the mice to maintain the posture with the two forepaws on the bars were recorded, and 30 s of spasticity without moving was considered as the positive response. In the case the forepaws of the mice were not put down persistently, the observation was terminated at 60 s. The numbers of animals with positive response in each of the compound dosage groups were counted.

[4] = system: KM mice; experiment: Catalepsy assay; type: in vivo
Description: as §1, §2, §3

[5] = system: KM mice; experiment: Apomorphine induced clambering assay of mice; type: in vivo; conditions: for ED50: Mus musculus, po, apomorphine 1 mg/kg sc
Description: Healthy KM mice (male, with body weight of 18-22 g) were provided by Qinglongshan Animal Cultivation Center, Nanjing.
Test positive drugs: haloperidol, clozapine, risperidone, olanzapine, aripiprazole, ziprasidone, quetiapine.
Apomorphine provided by Sigma Company was dissolved in 0.9% NaCl (containing 0.1% vitamin C) before use, and was freshly formulated before use.
Corresponding solvent double-distilled water was administered intragastrically to the negative control group and the model group, corresponding positive drugs were administered intragastrically to the positive drug groups (a small amount of acetic acid was first added and then double-distilled water was added when dissolving), and corresponding dosages of compounds were administered intragastrically to the compound groups for each dosage, with the volume for intragastric administration as 0.1 ml/10 g. 1 hour after the intragastric administration, apomorphine was subcutaneously injected (1 mg/kg), with the volume as 0.1 ml/10 g. After the injection of apomorphine, the mice were immediately put into the clambering cages. After 5 min of adaptation, the behaviors of the mice at 10-11, 20-21, and 30-31 min after the injection of apomorphine were observed and scored. Scoring criteria: 4 paws on the floor was scored as 0; 2 forepaws on the cage was scored as 1; and 4 paws on the cage was scored as 2.

[6] = system: mice of Kunming breed; experiment: MK-801 induced high activity in mice; type: in vivo; conditions: for ED50: Mus musculus, 1.5 h, po, MK-801 0.1 mg/kg ip, spontaneous activity in 90 min; for improvement of MK-801 induced high activity (in words): compared to the model group
Description: Healthy mice of Kunming breed (with half male and half female, (20±2)g) were provided by Qinglongshan Animal Cultivation Center, Nanjing.
Subsequently, the spontaneous activities of the mice of each group in 90 min were measured.

[7] = in vivo; conditions: both, mouse, po
Description: (§4) KM mice (half male and half female) were randomly divided into several groups (with 2-5 mice in each group), which were respectively the 2000 mg/kg groups for each compound, and the solvent group. 0.2 ml/10 g were administered intragastrically. The death of the animals in 3 days were observed. (In the case 3 or more animals survived in 3 days without notable abnormity in their life states, the observation was continued until the assay was completed in 7 days. In the case 3 or more animals died in 3 days, the median lethal dose method was used to determine the LD50).
(§5) 0.2 ml/10 g were administered intragastrically, and the death of the animals in 1-3 days were observed.

[8] = molecular target: 5-HT2A receptor (Rattus norvegicus, UniProt P14842); experiment: 5HT2A receptor binding assay ([3H]-Ketanserin, rat brain striatum membrane); conditions: for inhibition at 10 µM: read-out: 5HT2A inhibition %
Sequence of 5-HT2A receptor (P14842 whole entry): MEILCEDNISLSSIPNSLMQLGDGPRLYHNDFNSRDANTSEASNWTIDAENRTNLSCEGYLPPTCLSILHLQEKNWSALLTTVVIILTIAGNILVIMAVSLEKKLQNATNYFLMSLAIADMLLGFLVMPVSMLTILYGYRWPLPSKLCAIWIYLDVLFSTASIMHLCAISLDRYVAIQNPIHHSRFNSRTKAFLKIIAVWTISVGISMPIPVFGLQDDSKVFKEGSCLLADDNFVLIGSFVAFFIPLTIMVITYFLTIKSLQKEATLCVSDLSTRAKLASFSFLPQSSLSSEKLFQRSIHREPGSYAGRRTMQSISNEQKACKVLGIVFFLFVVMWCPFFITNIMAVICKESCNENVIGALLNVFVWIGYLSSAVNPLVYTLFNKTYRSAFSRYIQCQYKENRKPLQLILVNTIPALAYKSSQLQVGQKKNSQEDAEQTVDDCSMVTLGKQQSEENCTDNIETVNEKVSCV

[9] = molecular target: 5-HT2C receptor (Rattus norvegicus, UniProt P08909); experiment: 5HT2C receptor binding assay ([3H]-mesulergine, rat brain striatum membrane)
Sequence of 5-HT2C receptor (P08909 33-460): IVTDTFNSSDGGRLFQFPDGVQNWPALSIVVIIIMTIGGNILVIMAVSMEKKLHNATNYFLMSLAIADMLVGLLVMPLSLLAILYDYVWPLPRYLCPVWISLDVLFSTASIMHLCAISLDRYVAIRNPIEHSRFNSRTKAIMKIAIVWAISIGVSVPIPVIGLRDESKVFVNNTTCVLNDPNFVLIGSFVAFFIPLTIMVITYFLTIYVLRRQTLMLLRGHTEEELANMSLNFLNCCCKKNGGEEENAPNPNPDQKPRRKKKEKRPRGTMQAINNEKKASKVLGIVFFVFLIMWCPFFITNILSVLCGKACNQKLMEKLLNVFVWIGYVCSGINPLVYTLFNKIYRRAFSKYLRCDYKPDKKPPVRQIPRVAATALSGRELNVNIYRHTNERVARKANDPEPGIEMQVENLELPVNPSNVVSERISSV

[10] = molecular target: T2, D3 receptor (Homo sapiens, UniProt P35462); experiment: D3 receptor assay ([3H]-Spiperone, HEK-293 cells); type: binding
T2 construct: expressed in transfected cells; host or cells: HEK-293
T2 sequence (P35462 whole entry): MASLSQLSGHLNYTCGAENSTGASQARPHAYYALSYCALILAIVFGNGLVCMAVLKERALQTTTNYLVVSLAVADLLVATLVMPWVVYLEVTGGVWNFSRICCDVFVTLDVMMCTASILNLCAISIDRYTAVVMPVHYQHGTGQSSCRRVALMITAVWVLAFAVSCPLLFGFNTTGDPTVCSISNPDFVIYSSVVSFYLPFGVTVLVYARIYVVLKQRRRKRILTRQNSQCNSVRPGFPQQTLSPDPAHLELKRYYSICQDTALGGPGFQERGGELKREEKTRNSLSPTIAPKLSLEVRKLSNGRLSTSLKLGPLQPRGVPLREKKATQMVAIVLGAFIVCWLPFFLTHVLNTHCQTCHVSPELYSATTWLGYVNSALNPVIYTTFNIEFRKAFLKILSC
Description: After the cells were centrifuged at 1000 rpm for 5 min, the supernatant was discarded, and the cell pellet was collected and stored in a −20° C. fridge for reservation. It was re-suspended with Tris-Cl (pH 7.4) in the assay.
Tris was divided into aliquots by Genetimes Technology Inc.
Competitive binding test for receptors: 20 μl of each of the test compounds and 20 μl of the radioactive ligand together with 160 μl of the receptor proteins were added into the reaction tubes, and the final concentrations of the test compound and the positive drug were all 10 μmol/L. After 50 min of incubation in 30° C. water bath, the tubes were immediately moved to ice bath to terminate the reactions. GF/C glass fiber filter papers were used for rapid sucking filtration on a Millipore cell sample collector, elution buffer (50 mM Tris-HCl, PH 7.4) was applied for 3 ml×3 times, and microwave was applied for 4-5 min for drying. The filter papers were moved into 0.5 ml centrifuge tubes, and 500 μl of lipid-soluble scintillation solution was added. The tubes were allowed to stand still for over 30 min in dark, and the intensities of radioactivity were measured by a counter.

[11] = system: KM mice; conditions: both, mouse, in vivo
Description: as §4, §5

[12] = 3H-8-OH-DPAT, rat brain striatum membrane
[13] = in vitro receptor binding assay

Sequence of dopamine D2 receptor (P61169 whole entry): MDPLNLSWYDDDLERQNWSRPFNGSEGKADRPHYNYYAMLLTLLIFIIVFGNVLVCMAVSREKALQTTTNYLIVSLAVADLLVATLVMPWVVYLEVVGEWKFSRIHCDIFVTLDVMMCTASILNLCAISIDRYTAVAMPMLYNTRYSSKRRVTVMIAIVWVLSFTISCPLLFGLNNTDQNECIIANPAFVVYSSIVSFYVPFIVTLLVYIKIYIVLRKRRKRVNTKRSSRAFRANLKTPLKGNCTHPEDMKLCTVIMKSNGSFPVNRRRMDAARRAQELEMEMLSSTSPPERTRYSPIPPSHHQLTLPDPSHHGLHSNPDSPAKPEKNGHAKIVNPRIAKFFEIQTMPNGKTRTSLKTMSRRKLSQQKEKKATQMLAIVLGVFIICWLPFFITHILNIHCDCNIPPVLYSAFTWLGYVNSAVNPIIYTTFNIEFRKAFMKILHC

SMILES | inhibition at 10 µM [1] [%] | inhibition at 10 µM [2, 12] [%] | ED50 [3] [mg/kg] | EPS at effective dosage (in words) [4] | improvement of apomorphine induced clambering symptoms (in words) [5] | ED50 [5] [mg/kg] | ED50 [6] [mg/kg] | improvement of MK-801 induced high activity (in words) [6] | LD50 [7] [mg/kg] | other results
Cc1cc(=O)oc2c(Cl)c(OCCCCN3CCC(c4noc5cc(F)ccc45)CC3)ccc12 [Compound 19, 7-(4-(4-(3-(6-fluoro-benzisoxazole)-1-piperidyl)-n-butoxy))-4-methyl-8-chloro-2H-benzopyran-2-one] | 27.8 | 104 | 70.8 | did not cause EPS | effectively improve | 1.68 | 1.33 | significantly improve | – | LD50 ([7]; KM): > 2000 mg/kg; inhibition at 10 µM ([8]; test compound final concentration 10^−5 M, [3H]-Ketanserin, rat brain striatum membrane): 119%
Cc1cc(=O)oc2cc(OCCCN3CCC(c4noc5cc(F)ccc45)CC3)ccc12 [Compound 7, 7-(3-(4-(3-(6-fluoro-benzisoxazole)-1-piperidyl)-n-propoxy))-4-methyl-2H-benzopyran-2-one] | 103 | – | 1.5 | – | – | 0.15 | 0.27 | – | 1000 to 2000 | affinity for D2 receptor (in words) [1, 13]: relatively stronger affinities; IC50 ([2]; cells marked ^a, 3H-8-OH-DPAT, rat brain striatum membrane): 5.95 nM; affinity for 5-HT1A receptor (in words) [2, 13]: relatively stronger affinities; affinity for 5-HT2C receptor (in words) [9, 13]: lower affinities; inhibition at 10 µM ([9]; read-out: 5HT2C inhibition %): 82%; inhibition at 10 µM ([10]; final concentration 10 μmol/L, [3H]-Spiperone, HEK-293 cells): 101%; affinity for D3 receptor (in words) [10, 13]: relatively stronger affinities; IC50 ([8]; cells marked ^a, [3H]-Ketanserin, rat brain striatum membrane): 0.69 nM; affinity for 5-HT2A receptor (in words) [8, 13]: relatively stronger affinities
Cc1cc(=O)oc2c(C)c(OCCCCN3CCC(c4noc5cc(F)ccc45)CC3)ccc12 [Compound 23, 7-(4-(4-(3-(6-fluoro-benzisoxazole)-1-piperidyl)-n-butoxy))-4,8-dimethyl-2H-benzopyran-2-one] | 6.9 | 78.5 | 46.1 | did not cause EPS | effectively improve | 0.21 | 4.24 | significantly improve | > 2000 | inhibition at 10 µM [8]: 78.6%
O=C1CCc2ccc(OCCCCN3CCN(c4cccc(Cl)c4Cl)CC3)cc2N1 [aripiprazole] | – | – | – | – | – | – | – | – | – | LD50 (po, mg/kg) [11]: 93 mg/kg
